According to US6284918A, “Selective inhibitors of prostaglandin endoperoxide synthase-2” (priority 1999, dated 2001):
Like-named read-outs stand apart in the source and are kept apart here.

Key:
human PGHS-2 = biological target: T1, human PGHS-2 (Homo sapiens, UniProt P35354); assay: Time- and concentration-dependent inhibition of human PGHS-2, TLC assay (3 h preincubation); assay type: biochemical; conditions: for IC50: PGHS-2 88 nM; for inhibition of PGHS-2 (in words): table footnotes; for IC50 (PGHS-1)/IC50 (PGHS-2): selectivity ratio, 180 min
T1 construct: made in house; host or cells: insect cells (baculovirus vectors)
T1 sequence (P35354 18-604): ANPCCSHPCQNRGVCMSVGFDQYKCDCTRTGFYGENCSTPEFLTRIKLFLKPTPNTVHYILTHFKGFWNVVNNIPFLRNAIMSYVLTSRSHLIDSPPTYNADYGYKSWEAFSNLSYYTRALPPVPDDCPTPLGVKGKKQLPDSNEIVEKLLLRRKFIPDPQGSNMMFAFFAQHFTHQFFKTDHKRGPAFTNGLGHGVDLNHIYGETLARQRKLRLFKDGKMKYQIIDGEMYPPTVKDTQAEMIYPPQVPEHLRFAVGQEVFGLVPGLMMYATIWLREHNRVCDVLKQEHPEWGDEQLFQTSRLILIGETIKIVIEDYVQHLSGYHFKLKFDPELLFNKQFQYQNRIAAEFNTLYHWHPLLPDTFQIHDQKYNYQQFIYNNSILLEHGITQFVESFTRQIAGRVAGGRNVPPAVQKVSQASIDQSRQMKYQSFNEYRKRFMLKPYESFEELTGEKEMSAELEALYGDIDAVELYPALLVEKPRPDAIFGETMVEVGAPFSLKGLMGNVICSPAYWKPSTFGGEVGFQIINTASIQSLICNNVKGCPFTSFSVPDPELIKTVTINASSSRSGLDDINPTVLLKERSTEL
Description: (§1) Cyclooxygenase activity of ovine PGHS-1 (22 nM) or human PGHS-2 (88 nM) was assayed by TLC. Reaction mixtures of 200 μL consisted of hematin-reconstituted protein in 100 mM Tris-HCl, pH 8.0, 500 μM phenol, and [1-^14 C]arachidonic acid (50 μM, 57 mCi/mmol). For the time-dependent inhibition assay, hematin-reconstituted PGHS-1 (22 nM) or PGHS-2 (88 nM) was preincubated at room temperature for 2 hours and then at 0° C. for 1 hour with varying concentrations of inhibitor in DMSO followed by the addition of [1-^14 C]arachidonic acid (50 μM) for 30 seconds at 37° C. Reactions were terminated by solvent extraction in diethyl ether/methanol/1 M citrate, pH 4.0 (30:4:1). The organic phase was spotted on a TLC plate (Amersham Corp.). The plate was developed with ethyl acetate/methylene chloride/glacial acetic acid (75:25:1) at 4° C. Radiolabeled products were quantitated with a radioactivity scanner (Bioscan, Inc., Washington, D.C.).
(§2) conducted at room temperature for 3 hours. The cyclooxygenase reaction was
(§3) initiated by the addition of 14C-arachidonic acid (50 μM) to the
(§4) incubation mixtures at 37 C for 30 seconds.
(§5) conducted at room temperature for 3 hours. The cyclooygenase reaction was
(§6) initiated by the addition of ^14 C-arachidonic acid ([…]) to the
(§7) incubation mixtures at 37° C. for 30 sec.

ovine PGHS-1 = biological target: T2, ovine PGHS-1 (Ovis aries, UniProt P05979); assay: Time- and concentration-dependent inhibition of ovine PGHS-1, TLC assay (3 h preincubation); assay type: biochemical; conditions: for inhibition of PGHS-1 (in words): table footnotes
T2 construct: PGHS-1 was purified from sheep seminal vesicles as described earlier; tissue Oxford Biomedical Research, Inc. (supplier of the sheep seminal vesicles); host or cells: sheep seminal vesicles
T2 sequence (P05979 25-600): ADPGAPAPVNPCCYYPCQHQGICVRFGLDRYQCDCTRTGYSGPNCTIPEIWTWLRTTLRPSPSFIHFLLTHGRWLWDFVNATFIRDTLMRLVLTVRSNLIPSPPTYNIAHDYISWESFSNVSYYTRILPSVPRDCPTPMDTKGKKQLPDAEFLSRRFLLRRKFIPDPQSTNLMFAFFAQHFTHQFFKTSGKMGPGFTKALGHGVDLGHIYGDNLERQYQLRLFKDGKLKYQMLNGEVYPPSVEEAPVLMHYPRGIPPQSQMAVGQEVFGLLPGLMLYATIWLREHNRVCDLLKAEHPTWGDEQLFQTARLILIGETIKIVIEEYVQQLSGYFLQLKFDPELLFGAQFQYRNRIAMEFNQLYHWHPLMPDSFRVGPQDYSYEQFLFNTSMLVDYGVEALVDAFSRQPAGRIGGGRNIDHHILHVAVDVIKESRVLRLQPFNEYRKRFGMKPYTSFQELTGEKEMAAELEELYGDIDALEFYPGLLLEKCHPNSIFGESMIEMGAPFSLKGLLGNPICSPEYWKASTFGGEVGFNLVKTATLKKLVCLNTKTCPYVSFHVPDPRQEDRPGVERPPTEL
Description: as §1, §2, §3, §4, §5, §6, §7

hCOX-2 = biological target: T3, hCOX-2 (Homo sapiens, UniProt P35354); assay: Time- and concentration-dependent inhibition of hCOX-2 (1 h incubation); assay type: biochemical
T3 construct: made in house; host or cells: insect cells (baculovirus vectors)
T3 sequence (P35354 18-604): T1 sequence (P35354 18-604)
Description: (§8) ^a IC50 values were determined by incubating several inhibitor
(§9) concentrations in DMSO with purified hCOX-2 or oCOX-1 for 1 h at rt;
(§10) assays were run in duplicate. IC50 values are average of duplicate
(§11) determinations for each test compounds.

oCOX-1 = biological target: T4, oCOX-1 (Ovis aries, UniProt P05979); assay: Time- and concentration-dependent inhibition of oCOX-1 (1 h incubation); assay type: biochemical, ovine
T4 construct: PGHS-1 was purified from sheep seminal vesicles as described earlier; tissue Oxford Biomedical Research, Inc. (supplier of the sheep seminal vesicles); host or cells: sheep seminal vesicles
T4 sequence (P05979 25-600): T2 sequence (P05979 25-600)
Description: as §8, §9, §10, §11

[1] = Table 1, 3 h at room temperature, 50 μM 14C-arachidonic acid
[2] = Table 1, 22 nM enzyme, 3 h at room temperature, 50 μM 14C-arachidonic acid
[3] = Table 2, 3 h at room temperature
[4] = Table 2, PGHS-1 22 nM, 3 h at room temperature
[5] = Table 3, 1 h at rt, average of duplicates, read-out: IC50 hCOX-2
[6] = Table 3, 1 h at rt, average of duplicates, read-out: IC50 oCOX-1

Structure (SMILES) | IC50 (human PGHS-2; [3]) | IC50 (PGHS-1)/IC50 (PGHS-2) (human PGHS-2; Table 2) | IC50 (ovine PGHS-1; [4]) | other results
CSc1ccccc1OC(=O)C(F)(F)F [Compound 6] |  |  |  | inhibition at 100 µM (human PGHS-2; FIG. 8, 0.1 mM): ~35%
CSc1ccccc1OC(=O)CCl [Compound 7, 2-(α-chloroacetoxy)thioanisole] |  |  |  | IC50 (human PGHS-2; [1]): 360 µM; IC50 (ovine PGHS-1; [2]): 0.39 mM
CSc1ccccc1OC(=O)CBr [Compound 8, 2-(α-bromoacetoxy)thioanisole] |  |  |  | IC50 (human PGHS-2; [1]): 510 µM; IC50 (ovine PGHS-1; [2]): 0.32 mM
CCCCCCCSc1ccccc1O [Compound 38, 2-Hydroxyphenylheptyl sulfide] |  |  |  | inhibition of cyclooxygenase activity of human holoPGHS-2 (in words) (human PGHS-2; FIG. 9, 3 h at room temperature): very little effect; inhibition of PGHS-2 (in words) (human PGHS-2): did not inhibit; inhibition of PGHS-1 (in words) (ovine PGHS-1): did not inhibit
CCSc1ccccc1OC(C)=O [Compound 49, 2-Acetoxyphenylethyl sulfide] | 200 µM | 1.8 | 0.375 mM | 
CCCSc1ccccc1OC(C)=O [Compound 50, 2-Acetoxyphenylpropyl sulfide] | 66 µM | 1.0 | 0.066 mM | 
CC(=O)Oc1ccccc1SCC(C)C [Compound 51, 2-Acetoxyphenyl-2-methylpropyl sulfide] | 40 µM | 1.2 | 0.034 mM | 
CCCCCCSc1ccccc1OC(C)=O [Compound 53, 2-Acetoxyphenylhexyl sulfide] | 3.5 µM | 2.3 | 0.008 mM | 
CCCCCCCCSc1ccccc1OC(C)=O [Compound 55, 2-Acetoxyphenyloctyl sulfide] | > 33 µM |  | > 0.033 mM | 
CCCCCCCCCSc1ccccc1OC(C)=O [Compound 56, 2-Acetoxyphenylnonyl sulfide] | > 33 µM |  | > 0.033 mM | 
CC(=O)Oc1ccccc1SC1CCCCC1 [Compound 57, 2-Acetoxyphenylcyclohexyl sulfide] | > 33 µM |  | > 0.033 mM | 
CC(=O)Oc1ccccc1SC1CCCCCC1 [Compound 58, 2-Acetoxyphenylcycloheptyl sulfide] | > 33 µM |  | > 0.033 mM | 
CC(=O)Oc1ccccc1SCCc1ccccc1 [Compound 60, 2-Acetoxyphenyl-2-phenylethyl sulfide] |  |  |  | IC50 (human PGHS-2; [1]): 100 µM
CC(=O)Oc1ccccc1SCCCCCCCC(=O)O [Compound 63, 2-Acetoxyphenyl-8-carboxyheptyl sulfide] |  |  |  | IC50 (ovine PGHS-1; Table 1, cell printed in mM): > 1 mM
CCCCOCCSc1ccccc1OC(C)=O [Compound 67, 2-Acetoxyphenyl-2-butoxyethyl sulfide] | 7 µM | 3 | 0.022 mM | inhibition of cyclooxygenase activity of human holoPGHS-2 (in words) (human PGHS-2; FIG. 11, 8 μM (compound 67)): greatly inhibited
CCOCCCSc1ccccc1OC(C)=O [Compound 71, 2-Acetoxyphenyl-3-ethoxypropyl sulfide] | > 33 µM |  | > 0.033 mM | inhibition of cyclooxygenase activity of human holoPGHS-2 (in words) (human PGHS-2; FIG. 11, 8 μM (compound 67)): very little effect
CCCC/C=C/CSc1ccccc1OC(C)=O [Compound 75, 2-Acetoxyphenyl-trans-hept-2-enyl sulfide] |  |  | > 0.0165 mM | inhibition at 16.5 µM (ovine PGHS-1; at 16.5 μM): ~25%
CCCCC#CCSc1ccccc1O [Compound 82, 2-Hydroxyphenyl-hept-2-ynyl sulfide] |  |  |  | inhibition of cyclooxygenase activity of human holoPGHS-2 (in words) (human PGHS-2; FIGS. 12 and 13, 1-16 μM): very little effect; inhibition of PGHS-2 (in words) (human PGHS-2): did not inhibit; inhibition of PGHS-1 (in words) (ovine PGHS-1): did not inhibit
CCCC#CCSc1ccccc1OC(C)=O [Compound 88, 2-Acetoxyphenylhex-2-ynyl sulfide] | 3 µM | 4.6 | 0.014 mM | inhibition of cyclooxygenase activity of human holoPGHS-2 (in words) (human PGHS-2; FIGS. 12 and 13, 1-16 μM): greatly inhibited
CCC#CCSc1ccccc1OC(C)=O [Compound 89, 2-Acetoxyphenylpent-2-ynyl sulfide] | 5 µM | 4 | 0.02 mM | 
CC#CCSc1ccccc1OC(C)=O [Compound 90, 2-Acetoxyphenyl-but-2-ynyl sulfide] |  | > 2 | > 0.035 mM | 
C#CCSc1ccccc1OC(C)=O [Compound 91, 2-Acetoxyphenyl-prop-2-ynyl sulfide] | 25 µM | 1.6 | 0.04 mM | 
CCCCCCCS(=O)(=O)c1ccccc1OC(C)=O [Compound 93, 2-Acetoxyphenylheptyl sulfone] |  |  |  | inhibition of PGHS-2 (in words) (human PGHS-2): very poor inhibitor; inhibition of PGHS-1 (in words) (ovine PGHS-1): very poor inhibitor
CCCCCC#CCSc1ccccc1OC(C)=O [Compound 109, 2-Acetoxyphenyloct-2-ynyl sulfide] |  |  |  | IC50 (hCOX-2; [5]): 7 µM; IC50 (oCOX-1; [6]): 33 µM
CCCCCCC#CCSc1ccccc1OC(C)=O [Compound 110, 2-Acetoxyphenylnon-2-ynyl sulfide] |  |  |  | IC50 (hCOX-2; [5]): 12.5 µM; IC50 (oCOX-1; [6]): 50 µM
CCCCCCCC#CCSc1ccccc1OC(C)=O [Compound 111, 2-Acetoxyphenyldec-2-ynyl sulfide] |  |  |  | IC50 (hCOX-2; [5]): 16 µM; IC50 (oCOX-1; [6]): > 50 µM
CCCC#CCCSc1ccccc1OC(C)=O [Compound 115, 2-Acetoxyephenylhept-3-ynyl sulfide] |  |  |  | IC50 (hCOX-2; [5]): 6.5 µM; IC50 (oCOX-1; [6]): 18 µM
CCCCC#CCSc1ccccc1OC(N)=O [Compound 122, 2-Carbamoyloxyphenylhept-2-ynyl sulfide] |  |  |  | IC50 (hCOX-2): > 40 µM; IC50 (oCOX-1): > 40 µM
CCCCC#CCSc1ccccc1OC(=O)CBr [Compound 123, 2-(α-bromoacetoxy)phenylhept-2-ynyl sulfide] |  |  |  | IC50 (hCOX-2; [5]): 26 µM; IC50 (oCOX-1; [6]): 20 µM
CCCCC#CCSc1ccccc1OS(C)(=O)=O [Compound 124, 2-Methylsulfonyloxyphenylhept-2-ynyl sulfide] |  |  |  | IC50 (hCOX-2; [5]): > 40 µM; IC50 (oCOX-1; [6]): > 40 µM
